In ChEMBL document CHEMBL1130665, “Synthesis and biological evaluation of a water soluble phosphate prodrug of 3-aminopyridine-2-carboxaldehyde thiosemicarbazone (3-AP)” (Bioorg Med Chem Lett, 1998):

What was measured:
M109 [1] = experiment: In vivo antitumor activity evaluated against M-109 murine lung carcinoma cells in BALB/c mice administered intraperitoneally at a dose of 10 mg/kg; format: functional, Mus musculus; settings: route intraperitoneal
Canis familiaris = organism: Canis familiaris; experiment: Compound was evaluated for area under the curve in dog blood.; format: ADME, organism-based, Canis lupus familiaris; settings: in vivo
[2] = Compound was evaluated for plasma clearance.; format: ADME, organism-based, Canis lupus familiaris; settings: dog
M109 [3] = experiment: In vivo antitumor activity evaluated against M-109 murine lung carcinoma cells in BALB/c mice administered intraperitoneally at a dose of 4.5 mg/kg; format: functional, Mus musculus; settings: route intraperitoneal

Structure (SMILES)	Tumor volume reduction (M109 [1])	AUC (Canis familiaris)	clearance [2]	Tumor volume reduction (M109 [3])
N/C(S)=N/N=C/c1ncccc1NC(=O)OCc1ccc(OP(=O)([O-])[O-])cc1.[Na+].[Na+]	46%	74.04 mg/min/L	43.8 mL/min/kg	
NC(=S)N/N=C/c1ncccc1N [TRIAPINE]		71.59 mg/min/L	40.6 mL/min/kg	30%
